Measured values taken from patent US20260325500A1, “METHODS AND COMPOSITIONS FOR TREATING ACUTE STRESS DISORDER” (BioXcel Therapeutics, Inc., priority 2022, published 2026).
Counter-ions that a name gives are not always drawn. Marks after values point to notes of the source that are not given here.

How the values were obtained:
[1] = tested on: Yohimbine-induced noradrenergic hyperarousal in Wistar rats; assay: Elevated plus maze, yohimbine-induced noradrenergic hyperarousal, dose response (Example 3); assay type: in vivo; conditions: 30 min
Excerpt: Background: Yohimbine is an alpha 2-adrenergic receptor antagonist reported to trigger panic attacks in healthy volunteers and to exacerbate symptoms in patients with panic disorder (Charney et al., 1992 Acta Psychiatr Scand., Vol. 86 (4): 273-282). Peripheral administration of Yohimbine causes noradrenergic mediated hyperarousal in rats as assessed by the EPM paradigm.
Rationale: The drug yohimbine is a natural product used to test a specific pathway, noradrenergic-mediated hyper-arousal. It is well established that yohimbine is an alpha2-adrenergic receptor antagonist and activates the locus coeruleus (LC) and increases noradrenergic signaling (the opposite of alpha2-adrenergic agonists like dexmedetomidine and clonidine). Increased LC activity and noradrenergic signaling makes animals anxious and agitated which can be measured by using the elevated plus maze. In the elevated plus maze, rodents were in the closed arms and explored the open arms depending on their anxiety and agitation (rats and mice normally explore their environments extensively when calm). […] This behavior is correlated to increased level of anxiety caused by noradrenergic mediated hyperarousal.
(§1) Animal groups: Rats were distributed in 9 different experimental groups with 12 […] per group as illustrated in Table 6. Each experimental group was also coded so that the experimenter became unaware of the true experimental group at the time EPM trial.
Acclimatization: Male Wistar rats (Janvier; Le Genest St Isle-France) were used for the study. They were purchased at a body weight of 150 g and reached a body weight of about 220 g at the time of use. They were group-housed (3-4 rats per cage) and maintained in a room with controlled temperature (21-22° C.) and a reversed light-dark cycle (12 h/12 h; lights on: 17:30-05:30; lights off: 05:30-17:30).
Drug preparation: All compounds/drugs were prepared in normal saline (0.9% NaCl).
Yohimbine was prepared at a solution of 2.5 mg/mL which when injected i.p. at a dosage volume of 1 mL/kg results in a dose of 2.5 mg/kg. Diazepam was prepared at a solution of 1 mg/mL which when injected i.p. at a dosage volume of 1 mL/kg results in a dose of 1 mg/kg. Latrepirdine dihydrochloride hydrate was prepared at a solution of 7.5, 2.5, 0.75 and 0.25 mg/mL which when injected i.m. at a volume of 100 μL for a rat of 250 g results in doses of 3; 1; 0.3 and 0.1 mg/kg; respectively. Latrepirdine dihydrochloride hydrate was also prepared at […] which when administrated i.p. at a dosage volume of 1 mL/kg results in a dose of 3 mg/kg.
Experimental procedure: The rats were randomly assigned to one of the different experimental groups. Each animal was identified by its group name, cage number, series (day) of experiment, and a number (from 1 to 9) written with permanent ink on its tail. They were handled by an experimenter for about 3 min each day during 1 week prior to the day of EPM trial. The apparatus was a PVC maze covered with Plexiglas and subdivided into four equal exploratory arms (40×10 cm), which were all interconnected by a small platform (10×10 cm). The apparatus was placed 65 cm above the floor. Two arms were opened, and two others were closed with wall (high: 10 cm). After compound administration, rat was placed on the platform opposite a closed arm. The number of entries and the time spent in each arm were recorded during a 5 min period. The animal was considered as entered in an arm when it placed its four paws in the arm. The apparatus was cleaned between each animal using alcohol (70%). Urine and feces were removed from the maze. During the trials, animal handling and the visibility of the operator were minimized as much as possible.
Statistical analysis: Analysis of variance (ANOVA) was performed on the result data. Fisher's PLSD was used for pairwise comparisons and p value≤0.05 were considered significant. […]

[2] = tested on: CCK-4 induced panic anxiety in rats; assay: Elevated plus maze, CCK-4 induced panic anxiety (Example 8); assay type: in vivo, Wistar rats; conditions: diazepam 1 mg/kg; CCK4 0.2 mg/kg i.p.
Excerpt: Rationale: In the past two decades panic induction with cholecystokinin-tetrapeptide (CCK-4) as an experimental model of human anxiety has become a focus of intensive research. CCK-4 is a synthetic analog of the endogenous neuropeptide cholecystokinin (CCK), which has been found in different brain regions. Particularly, high concentrations of CCK have been detected in regions that have been implicated in the mediation of panic attacks such as the cerebral cortex, amygdala, hippocampus, and brainstem nuclei. CCK-4 dose dependently induces panic attacks in healthy controls. Thus, CCK-4 has been postulated to fulfil the criteria for an ideal and valid panicogenic agent. […] Therefore, the CCK-4 challenge paradigm can serve as a useful tool to evaluate the anti-panic potential of novel anxiolytic compounds.
as §1, with “groups: Male Wistar” for “groups:”, “Rats were purchased at a body weight of 150 g and reached a body weight of about 220 g at the time of use. Animals” for “Rats”, “6” for “9”, “11.” for “6.”
Study drugs: All compounds/drugs were prepared in saline (0.9% NaCl).
CCK-4 was prepared at a solution of 0.2 mg/ml which when injected i.p. at a dosage volume of 1 ml/kg results in a dose of 0.2 mg/kg.
Diazepam was prepared at a solution of 1 mg/ml which when injected i.p. at a dosage volume of 1 ml/kg results in a dose of 1 mg/kg.
Latrepirdine was prepared at concentrations of 2.5, 7.5, 25 and 37.5 mg/ml which when injected i.m. at a volume of 100 μL for a rat of 250 g results in doses of 1, 3, 10 and 15 mg/kg respectively.
Study design and dosing: The rats were randomly assigned to one of the different experimental groups. Each animal was identified by its group name, cage number, series (day) of experiment, and a number (from 1 to 4) written with permanent ink on its tail. They were handled by an experimenter for about 3 min each day during 1 week prior to the day of EPM trial.
The apparatus is a PVC maze covered with Plexiglas and subdivided into four equal exploratory arms (40×10 cm), which are all interconnected by a small platform (10×10 cm). The apparatus is placed 65 cm above the floor. Two arms are opened, and two others are closed with wall (high: 10 cm).
After compound administration, rat is placed on the platform opposite a closed arm. The number of entries and the time spent in each arm are recorded during a 5 min period. The animal is considered as entered in an arm when it places its four paws in the arm.
Statistical analysis: Data was analyzed using One-Way ANOVA followed by multiple comparison with Dunnett's post-hoc test. All statistical analyses were performed using GraphPad Prism software package (Version 9) and p value below 0.05 was considered as significant.

[3] = tested on: rat forced swim test model (depressive-like behavior); assay: Forced swim test in dark phase (Example 4); assay type: in vivo, Sprague Dawley rats; conditions: 30 mg/kg, p.o.; versus vehicle saline, 5 minutes observation
Excerpt: Animal groups: Male Sprague Dawley (SD) rats (8-10 weeks old) were grouped housed 2 per cage in standard animal cages with facilities for pelleted food and drinking water in polycarbonate bottle with stainless steel sipper tubes. During the experimental period, animals were housed in a single experimental room. Rats were distributed in 7 different experimental groups with 9-12 rats per group as illustrated in Table 8. Animals were distributed to different groups based on body weight data. Each experimental group was also coded so that the experimenter became unaware of the true experimental group at the time FST trial.
Animals were housed in an environment-controlled room at 22±3° C. and relative humidity of 30 to 70 percent. During the study, 12/12 light/dark cycles were maintained. Lights of the acclimatization area were switched off at 06:00 PM. All experiments were carried out at ambient temperature under dark phase of lighting (between 06:00 PM to 06:00 AM). Adequate fresh air supply of 12-15 air changes/hour was maintained in the experimental room. The maximum and minimum temperature and relative humidity in the experimental rooms was recorded once daily. The relative humidity in the experimental room was calculated daily from dry and wet bulb temperature recordings.
Swim 1 was carried out between 18:30 to 21:30.
Swim 2 was carried out between 19:30 to 21:30. Animals were administered test compounds from 18:30 onwards in staggered manner 60 minutes before FST 2.
Forced swim test was carried out in dark phase
On Day 1, animals were subjected to forced swim test training for 15 minutes (Swim 1) and on Day 2, Swim 2 was carried out post treatment.
On day 2 animals were dosed with respective treatment 60 min prior to performing FST.
Forced swim test (Swim 2) was scored manually with no video recording.
Forced swim test (FST), was used to study the depressive-like behavior in rodents. The test was carried out in transparent cylindrical glass containers measuring 46 cm in height and 20 cm in diameter.
There were 2 swim sessions, 24 h apart. The first session, Swim 1 was the pretest/training stage (15 min) and the second session, Swim 2, was the test stage (8 min).
In swim 2, first 1-minute data was excluded from analysis and rest 7 minutes data was considered. In 7 minutes, data, it was divided 5 minutes and 2 minute.
Twenty-four hours after the start of Swim 1, the test swim (Swim 2) was carried out.
Rat was placed in the water-filled cylinder for 8 min (Swim 2).
The duration of time spent immobile, swimming, and climbing was observed by an observer blind to the treatment group.
Immobility period: A rat was judged to be immobile when it remained floating in the water without struggling and was making only those movements necessary to keep its head above water.
Statistical analysis: One Way ANOVA, Dunnet's multiple comparison test was applied with respect to vehicle saline and Tukey's multiple comparison test was applied to compare the data in between the groups using GraphPad Prism version 9 software.

[4] = tested on: mouse behavior (SmartCube signature); assay: SmartCube system behavioral classification (Example 6); assay type: in vivo, Male C57/B16 mice; conditions: IP
Excerpt: Dexmedetomidine and latrepirdine have anti-psychotic effects, when tested in the SmartCube® system (Psychogenics, Inc., Paramus, NJ; See also U.S. Pat. No. 7,580,798 incorporated herein by reference in its entirety). This system uses features derived from mouse behavioral data to first, classify mice on compound versus vehicle. This measure indicates how well the system can differentiate between a mouse on compound versus a mouse on vehicle. Secondly, by comparing the features to a proprietary reference database of behavioral feature sets that are linked to classes of marketed drugs known to treat neuro-psychiatric symptoms SmartCube® assigns a signature to the behavior. Thus, the system can be used as a model to identify both the activity and the psychiatric effect of a compound by comparing the effects of the compounds against drugs with known validated effects.
By comparing the responses of animals to known drugs, the test drug can be categorized according to its function; for example, hallucinogen, anxiogenic, analgesic, cognitive enhancer, psychostimulant, mood stabilizer, high dose anti-psychotic, anti-psychotic, sedative/hypnotic, anxiolytic, high dose antidepressant, antidepressant.
Once all features are extracted from the raw data through an automated pipeline, proprietary bioinformatics algorithms are used to decorrelate groups of features and find the combination of values that best separate different groups of interest. For each compound, at each dose, they system provides a probability that the drug is active and breaks down such putative activity into the different classes of interest.
SmartCube reference data used herein include anti-psychotics and anti-depressants tested at several dose ranges. “Anti-psychotic” versus “high dose anti-psychotic” as indicated in the legend, reflects the notion that anti-psychotics reference data is dose dependent. Anti-psychotics, when administered at higher doses, can engage additional receptor systems, and thus affect mouse behavior differently. The same applies for different doses of anti-depressants.
Animals: Male C57/B16 mice (N=12 per group) from Taconic Laboratories were used. Upon receipt, mice were group-housed in OPTI mouse ventilated cages with 4 mice per cage. Mice were acclimated to the colony room for at least one week prior to test and subsequently tested at approximately 8-9 weeks of age. All animals were examined, handled, and weighed prior to initiation of the study to assure adequate health and suitability and to minimize non-specific stress associated with manipulation.
All compounds tested were formulated in NP3 (vehicle solution): 5% Pharmasolve; 30% P3 (1:1:1 PEG200: PEG400: propylene glycol); 65% saline; pH is 5.1-6.
Test groups were: • Vehicle: NP3 • Dexmedetomidine at 0.005 and 0.010 mg/kg • Latrepirdine at 1 and 10 mg/kg • Dexmedetomidine and latrepirdine combinations (in mg/kg): 0.005/1.0; 0.005/10; 0.010/1.0; 0.010/10
Test compounds were injected intraperitoneally (IP) for 15 min before animals were placed in SmartCube for assessment.
Antipsychotic: SmartCube classifies the mouse behavior with test compound as similar to treatment with marketed anti-psychotics at therapeutically relevant doses.
High Dose Antipsychotic: SmartCube classifies the mouse behavior on test compound as similar to treatment with marketed anti-psychotics at doses that are considered as high therapeutically. High doses of anti-psychotics often cause sedation.
The results for the class analyses are presented as standardized bar charts with percentages that sum to 100 for each dose. The percentage indicates the probability the classifier can differentiate between the vehicle group and test group. The pattern indicates what class signature was assigned.

[5] = diazepam 1 mg/kg, i.p., yohimbine hydrochloride 2.5 mg/kg i.p.

CN1C(=O)CN=C(c2ccccc2)c2cc(Cl)ccc21 [Diazepam]
Percent increase as referred to the Vehicle level, Entries [1, 5]: 294%
Percent increase as referred to the Vehicle level, Time [1, 5]: 642%
Entries, % increase as compared to CCK-4/Vehicle [2]: (400.00) **** %
Entries, Mean ± SEM [2]: 9.5±0.5 n
Time, % increase as compared to CCK-4/Vehicle [2]: (652.27) **** %
Time, Mean ± SEM [2]: 99.3 ± 3.8 s

CNCCCN1c2ccccc2CCc2ccccc21 [desipramine hydrochloride]
climbing time [3]: increase
immobility time [3]: significant decrease
swimming time [3]: failed to show any significant effect

Cc1cccc([C@H](C)c2cnc[nH]2)c1C [dexmedetomidine, (+) 4-(S)-[1-(2,3-dimethylphenyl)ethyl]-1H-imidazole]
SmartCube signature ([4]; 0.005 and 0.010 mg/kg): antipsychotic signature
SmartCube total activity ([4]; dexmedetomidine 0.005 mg/kg): 9%
SmartCube total activity ([4]; dexmedetomidine 0.010 mg/kg): 40%

COC(=O)[C@@H]1[C@H]2C[C@H]3c4[nH]c5ccccc5c4CCN3C[C@@H]2CC[C@@H]1O [yohimbine]
number of visits to and time spent into the open arms versus vehicle-treated saline rats ([1]; yohimbine 2.5 mg/kg i.p.): marked significant decrease
